Assay results published in US11447466B2, “Substituted indole compounds useful as inhibitors of TLR7/8/9” (BRISTOL-MYERS SQUIBB COMPANY, priority 2017, dated 2022).

How the values were obtained:
Type in all cases: cell-based
human TLR7 = molecular target: T1, human TLR7 (Homo sapiens, UniProt Q9NYK1); assay: TLR7 inhibition reporter assay (HEK-Blue SEAP reporter, gardiquimod stimulation); conditions: HEK-Blue cells overexpressing human TLR7, SEAP reporter, gardiquimod 7.5 μM, 22 hour incubation
T1 construct: host or cells: HEK-Blue cells
T1 sequence (Q9NYK1 27-1049): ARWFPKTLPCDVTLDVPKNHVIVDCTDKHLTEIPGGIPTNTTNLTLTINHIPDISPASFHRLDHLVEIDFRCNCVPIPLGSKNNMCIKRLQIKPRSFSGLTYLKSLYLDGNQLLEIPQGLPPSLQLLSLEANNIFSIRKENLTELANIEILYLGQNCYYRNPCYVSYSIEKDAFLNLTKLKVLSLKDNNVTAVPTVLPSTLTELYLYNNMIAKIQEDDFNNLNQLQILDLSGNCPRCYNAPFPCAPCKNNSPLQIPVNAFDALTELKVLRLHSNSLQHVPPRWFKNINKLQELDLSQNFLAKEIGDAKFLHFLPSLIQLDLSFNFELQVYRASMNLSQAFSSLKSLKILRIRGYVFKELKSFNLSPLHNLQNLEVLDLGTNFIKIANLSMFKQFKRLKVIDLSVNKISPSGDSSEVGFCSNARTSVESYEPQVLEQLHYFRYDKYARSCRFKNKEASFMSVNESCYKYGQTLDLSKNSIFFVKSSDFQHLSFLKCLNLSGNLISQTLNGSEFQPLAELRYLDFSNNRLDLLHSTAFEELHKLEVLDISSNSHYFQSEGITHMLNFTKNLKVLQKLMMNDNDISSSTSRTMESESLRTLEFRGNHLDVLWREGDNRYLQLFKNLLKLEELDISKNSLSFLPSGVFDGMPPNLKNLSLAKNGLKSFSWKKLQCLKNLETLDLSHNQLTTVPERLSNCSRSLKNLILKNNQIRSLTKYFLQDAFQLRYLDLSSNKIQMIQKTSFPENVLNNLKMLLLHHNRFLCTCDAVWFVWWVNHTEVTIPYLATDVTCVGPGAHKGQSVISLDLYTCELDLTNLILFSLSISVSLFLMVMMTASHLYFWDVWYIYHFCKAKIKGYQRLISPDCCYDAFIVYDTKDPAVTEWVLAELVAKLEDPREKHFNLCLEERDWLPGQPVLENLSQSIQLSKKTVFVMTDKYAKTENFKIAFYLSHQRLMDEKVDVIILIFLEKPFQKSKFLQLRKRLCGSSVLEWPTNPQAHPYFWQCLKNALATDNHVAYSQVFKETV
Method in brief: (§1)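 Dose–response from 0.05 nM to 50 μM was run in HEK-Blue human TLR7, TLR8 and TLR9 reporter cells. After 30 min at room temperature with compound, ligand was added (TLR7 gardiquimod 7.5 μM; TLR8 R848 15.9 μM; TLR9 ODN2006 5 nM) and SEAP measured next day, at 22 h.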

human TLR8 = molecular target: T2, human TLR8 (Homo sapiens, UniProt Q9NR97); assay: TLR8 inhibition reporter assay (HEK-Blue SEAP reporter, R848 stimulation); conditions: HEK-Blue cells overexpressing human TLR8, SEAP reporter, R848 15.9 μM, 22 hour incubation
T2 construct: host or cells: HEK-Blue cells
T2 sequence (Q9NR97 27-1041): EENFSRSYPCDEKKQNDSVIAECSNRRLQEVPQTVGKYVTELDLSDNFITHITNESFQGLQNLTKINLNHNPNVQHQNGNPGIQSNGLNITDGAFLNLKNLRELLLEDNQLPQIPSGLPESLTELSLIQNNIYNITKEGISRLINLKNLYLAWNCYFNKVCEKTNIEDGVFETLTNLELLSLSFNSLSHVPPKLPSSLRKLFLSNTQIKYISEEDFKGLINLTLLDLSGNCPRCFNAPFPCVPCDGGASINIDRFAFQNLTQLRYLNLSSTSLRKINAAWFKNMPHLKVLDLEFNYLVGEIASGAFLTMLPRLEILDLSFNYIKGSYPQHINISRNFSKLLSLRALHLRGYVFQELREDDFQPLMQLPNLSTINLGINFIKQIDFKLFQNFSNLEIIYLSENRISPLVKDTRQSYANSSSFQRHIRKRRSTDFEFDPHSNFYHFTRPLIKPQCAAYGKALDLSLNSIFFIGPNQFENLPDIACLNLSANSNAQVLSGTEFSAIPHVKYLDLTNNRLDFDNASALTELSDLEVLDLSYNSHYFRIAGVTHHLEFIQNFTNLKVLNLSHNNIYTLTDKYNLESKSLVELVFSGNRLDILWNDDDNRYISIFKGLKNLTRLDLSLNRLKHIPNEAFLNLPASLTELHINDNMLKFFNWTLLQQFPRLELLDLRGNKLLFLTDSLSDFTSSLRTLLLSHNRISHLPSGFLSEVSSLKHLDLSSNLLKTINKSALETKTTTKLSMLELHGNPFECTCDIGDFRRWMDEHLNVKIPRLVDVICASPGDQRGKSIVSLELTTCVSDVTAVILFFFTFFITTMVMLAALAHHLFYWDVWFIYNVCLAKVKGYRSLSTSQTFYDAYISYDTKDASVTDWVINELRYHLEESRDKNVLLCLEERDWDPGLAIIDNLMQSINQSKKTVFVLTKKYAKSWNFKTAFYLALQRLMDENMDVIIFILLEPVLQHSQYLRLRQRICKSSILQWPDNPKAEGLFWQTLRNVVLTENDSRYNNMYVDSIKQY
Method in brief: as §1

human TLR9 = molecular target: T3, human TLR9 (Homo sapiens, UniProt Q9NR96); assay: TLR9 inhibition reporter assay (HEK-Blue SEAP reporter, ODN2006 stimulation); conditions: HEK-Blue cells overexpressing human TLR9, SEAP reporter, ODN2006 5 nM, 22 hour incubation
T3 construct: host or cells: HEK-Blue cells
T3 sequence (Q9NR96 26-1032): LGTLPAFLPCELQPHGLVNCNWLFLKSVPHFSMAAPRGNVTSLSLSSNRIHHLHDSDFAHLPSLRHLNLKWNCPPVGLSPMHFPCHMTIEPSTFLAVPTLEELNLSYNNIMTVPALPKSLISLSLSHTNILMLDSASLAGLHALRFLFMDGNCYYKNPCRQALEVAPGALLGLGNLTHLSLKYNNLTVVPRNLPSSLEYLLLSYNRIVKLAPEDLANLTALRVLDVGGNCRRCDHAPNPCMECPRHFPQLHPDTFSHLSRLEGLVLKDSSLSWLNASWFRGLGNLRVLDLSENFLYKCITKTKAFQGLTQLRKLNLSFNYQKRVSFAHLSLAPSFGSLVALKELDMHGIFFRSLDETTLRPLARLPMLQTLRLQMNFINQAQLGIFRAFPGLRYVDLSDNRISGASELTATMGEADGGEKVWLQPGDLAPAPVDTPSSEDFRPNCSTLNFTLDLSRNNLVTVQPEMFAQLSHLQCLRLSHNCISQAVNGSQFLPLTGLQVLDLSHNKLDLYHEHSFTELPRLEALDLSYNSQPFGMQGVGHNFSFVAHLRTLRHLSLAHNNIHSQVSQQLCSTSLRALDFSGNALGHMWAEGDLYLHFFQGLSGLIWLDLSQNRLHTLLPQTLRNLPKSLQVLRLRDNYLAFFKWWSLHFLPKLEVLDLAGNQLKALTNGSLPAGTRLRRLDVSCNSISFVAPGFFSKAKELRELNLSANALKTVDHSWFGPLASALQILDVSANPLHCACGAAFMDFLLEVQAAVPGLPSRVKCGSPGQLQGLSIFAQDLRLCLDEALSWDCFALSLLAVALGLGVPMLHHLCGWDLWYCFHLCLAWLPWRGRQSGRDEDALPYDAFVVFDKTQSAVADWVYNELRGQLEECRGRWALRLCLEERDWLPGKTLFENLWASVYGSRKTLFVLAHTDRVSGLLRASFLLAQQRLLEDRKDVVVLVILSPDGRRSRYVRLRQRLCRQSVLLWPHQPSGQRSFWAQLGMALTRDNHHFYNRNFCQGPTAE
Method in brief: as §1

SMILES	IC50 (human TLR7)	IC50 (human TLR8)	IC50 (human TLR9)
Cc1cc(-c2[nH]c3ccc(C4CCNCC4)cc3c2C(C)C)cn(C2CCOC2)c1=O (stereo not drawn) [Example 42, 5-(3-isopropyl-5-(piperidin-4-yl)-1H-indol-2-yl)-3-methyl-1-(tetrahydrofuran-3-yl)pyridin-2(1H)-one]	40.9 nM	134 nM	6710 nM
Cc1cc(-c2[nH]c3ccc(C4CCNCC4)cc3c2C(C)C)cn(CC(C)(C)O)c1=O [Example 43, 1-(2-hydroxy-2-methylpropyl)-5-(3-isopropyl-5-(piperidin-4-yl)-1H-indol-2-yl)-3-methylpyridin-2(1H)-one]	110 nM	157 nM	1560 nM
Cc1cc(-c2[nH]c3ccc(C4CCNCC4)cc3c2C(C)C)cn(-c2ccccc2)c1=O [Example 44, 5-(3-isopropyl-5-(piperidin-4-yl)-1H-indol-2-yl)-3-methyl-1-phenylpyridin-2(1H)-one]	3.8 nM	19.4 nM	2080 nM
Cc1cc(-c2[nH]c3ccc(C4CCNCC4)cc3c2C(C)C)cn(CC(F)(F)F)c1=O [Example 45, 5-(3-isopropyl-5-(piperidin-4-yl)-1H-indol-2-yl)-3-methyl-1-(2,2,2-trifluoroethyl)pyridin-2(1H)-one]	12.9 nM	48.4 nM	4670 nM
Cc1cc(-c2[nH]c3ccc(C4CCNCC4)cc3c2C(C)C)cn(Cc2ccccc2)c1=O [Example 46, 1-benzyl-5-(3-isopropyl-5-(piperidin-4-yl)-1H-indol-2-yl)-3-methylpyridin-2(1H)-one]	2.9 nM	29.9 nM	919 nM
CC(C)c1c(-c2cc(C#N)c(=O)n(C)c2)[nH]c2ccc(C3CCNCC3)cc12 [Example 47, 5-(3-isopropyl-5-(piperidin-4-yl)-1H-indol-2-yl)-1-methyl-2-oxo-1,2-dihydropyridine-3-carbonitrile]	31.9 nM	41.1 nM	1890 nM
CC(C)c1c(-c2ccc(=O)n(CC(C)(C)O)c2)[nH]c2ccc(C3CCNCC3)cc12 [Example 48, 1-(2-hydroxy-2-methylpropyl)-5-(3-isopropyl-5-(piperidin-4-yl)-1H-indol-2-yl)pyridin-2(1H)-one]	13900 nM	≥ 50000 nM	1270 nM
CC(C)c1c(-c2ccc(=O)n(CC(N)=O)c2)[nH]c2ccc(C3CCNCC3)cc12 [Example 49, 2-(5-(3-isopropyl-5-(piperidin-4-yl)-1H-indol-2-yl)-2-oxopyridin-1(2H)-yl)acetamide]	2610 nM	2090 nM	≥ 50000 nM
CC(C)c1c(-c2cc(-c3cccnc3)c(=O)n(C)c2)[nH]c2ccc(C3CCNCC3)cc12 [Example 50, 5-(3-isopropyl-5-(piperidin-4-yl)-1H-indol-2-yl)-1-methyl-[3,3′-bipyridin]-2(1H)-one]	6.8 nM	7.7 nM	411 nM
C=C(C)c1cc(-c2[nH]c3ccc(C4CCNCC4)cc3c2C(C)C)cn(C)c1=O [Example 51, 5-(3-isopropyl-5-(piperidin-4-yl)-1H-indol-2-yl)-1-methyl-3-(prop-1-en-2-yl)pyridin-2(1H)-one]	10.9 nM	30.6 nM	2580 nM

The remaining lines, values ahead:

IC50 (human TLR7)	IC50 (human TLR8)	IC50 (human TLR9)	SMILES
185 nM	142 nM	1520 nM	CC(C)c1c(-c2cc(/C=C/C3CC3)c(=O)n(C)c2)[nH]c2ccc(C3CCNCC3)cc12 [Example 52, (E)-3-(2-cyclopropylvinyl)-5-(3-isopropyl-5-(piperidin-4-yl)-1H-indol-2-yl)-1-methylpyridin-2(1H)-one]
23.4 nM	5.9 nM	753 nM	CC(C)c1c(-c2cc(-c3cncnc3)c(=O)n(C)c2)[nH]c2ccc(C3CCNCC3)cc12 [Example 54, 5-(3-isopropyl-5-(piperidin-4-yl)-1H-indol-2-yl)-1-methyl-3-(pyrimidin-5-yl)pyridin-2(1H)-one]
13.9 nM	203 nM	2290 nM	Cc1ccc(-c2cc(-c3[nH]c4ccc(C5CCNCC5)cc4c3C(C)C)cn(C)c2=O)cc1 [Example 55, 5-(3-isopropyl-5-(piperidin-4-yl)-1H-indol-2-yl)-1-methyl-3-(p-tolyl) pyridin-2(1H)-one]
13.7 nM	49 nM	408 nM	CC(C)c1c(-c2cc(-c3cccc(C#N)c3)c(=O)n(C)c2)[nH]c2ccc(C3CCNCC3)cc12 [Example 56, 3-(5-(3-isopropyl-5-(piperidin-4-yl)-1H-indol-2-yl)-1-methyl-2-oxo-1,2-dihydropyridin-3-yl)benzonitrile]
68.4 nM	81.9 nM	1360 nM	COc1ncccc1-c1cc(-c2[nH]c3ccc(C4CCNCC4)cc3c2C(C)C)cn(C)c1=O [Example 57, 5-(3-isopropyl-5-(piperidin-4-yl)-1H-indol-2-yl)-2′-methoxy-1-methyl[3,3′-bipyridin]-2(1H)-one]
